Experimental data from ChEMBL document CHEMBL1129601, “Inhibitors of acyl-CoA: cholesterol O-acyl transferase (ACAT) as hypocholesterolemic agents. CI-1011: an acyl sulfamate with unique cholesterol-lowering activity in animals fed noncholesterol-supplemented diets” (J Med Chem, 1996).
Where “and” joins values, the source holds several entries; their conditions need not be identical. Equal entries are not always repeated.

Tests used:
[1] = tested on: Oryctolagus cuniculus; experiment: Effect on Rabbits (Fed a Cholesterol-Free Casein Diet ) for plasma cholesterol at the dose of 3 mg/kg (post treatment); format: functional, organism-based; set-up: dose 3 mg/kg
[2] = tested on: Rattus norvegicus; experiment: Evaluated for %change in cholesterol fed rats for non-HDL-C at the dose of 10 mg/kg determined by Chronic screen test; format: functional
[3] = tested on: Rattus norvegicus; experiment: Evaluated for %change in cholesterol fed rats for HDL-C at the dose of 10 mg/kg determined by Chronic screen test; format: functional
[4] = tested on: Oryctolagus cuniculus; experiment: Effect on Rabbits (Fed a Cholesterol-Free Casein Diet ) for plasma cholesterol at the dose of 1 mg/kg (pretreatment); format: functional, organism-based; set-up: dose 1 mg/kg
[5] = tested on: Rattus norvegicus; experiment: Effect on the Cholesterol fed rats for non-HDL-C in rats at the dose of 0.001 mg/kg by Chroinc screen test; format: functional
[6] = tested on: Rattus norvegicus; experiment: Effect on the Cholesterol fed rats for total cholesterol level in rats at the dose of 0.1 mg/kg by Chroinc screen test; format: functional; also: unit not given here
[7] = tested on: Rattus norvegicus; experiment: Effect on the Cholesterol fed rats for total cholesterol level in rats at the dose of 0.3 mg/kg by Chroinc screen test; format: functional
[8] = tested on: Rattus norvegicus; experiment: Evaluated for %change in Normal, Chow fed rats for total cholesterol plasma level in rats at the dose of 10 mg/kg; format: functional
[9] = tested on: Rattus norvegicus; experiment: Evaluated for %change in cholesterol fed rats for HDL-C at the dose of 3 mg/kg determined by Chronic screen test; format: functional
[10] = tested on: Rattus norvegicus; experiment: Evaluated for %change in cholesterol fed rats for total cholesterol at the dose of 0.01 mg/kg determined by Chronic screen test; format: functional
[11] = tested on: Rattus norvegicus; experiment: Effect on the plasma cholesterol level in rats at the dose of 10 mg/kg by Acute screen test; format: functional, organism-based; set-up: dose 10 mg/kg
[12] = tested on: Rattus norvegicus; experiment: Evaluated for %change in cholesterol fed rats for total cholesterol at the dose of 0.1 mg/kg determined by Chronic screen test; format: functional
[13] = tested on: Rattus norvegicus; experiment: Evaluated for %change in cholesterol fed rats for total cholesterol at the dose of 3 mg/kg determined by Chronic screen test; format: functional
[14] = tested on: Oryctolagus cuniculus; experiment: Effect on Rabbits (Fed a Cholesterol-Free Casein Diet ) for plasma cholesterol at the dose of 10 mg/kg (post treatment); format: functional, organism-based; set-up: dose 10 mg/kg
[15] = tested on: Rattus norvegicus; experiment: Effect on the Cholesterol fed rats for total cholesterol level in rats at the dose of 0.01 mg/kg by Chroinc screen test; format: functional
[16] = tested on: Rattus norvegicus; experiment: Evaluated for %change in cholesterol fed rats for total cholesterol at the dose of 0.03 mg/kg determined by Chronic screen test; format: functional
[17] = tested on: Rattus norvegicus; experiment: Effect on the Normal, Chow fed rats for total cholesterol plasma level in rats at the dose of 3 mg/kg; format: functional, organism-based; set-up: dose 3 mg/kg
[18] = tested on: Rattus norvegicus; experiment: Evaluated for %change in cholesterol fed rats at the dose of 0.3 mg/kg determined by Acute screen test; format: functional
[19] = tested on: Rattus norvegicus; experiment: Evaluated for %change in cholesterol fed rats at the dose of 3 mg/kg determined by Acute screen test; format: functional
[20] = tested on: Rattus norvegicus; experiment: Effect on the plasma cholesterol level in rats at the dose of 3 mg/kg by Acute screen test; format: functional, organism-based; set-up: dose 3 mg/kg
[21] = tested on: Rattus norvegicus; experiment: Evaluated for %change in cholesterol fed rats for non-HDL-C at the dose of 0.03 mg/kg determined by Chronic screen test; format: functional
[22] = tested on: Rattus norvegicus; experiment: Effect on the Cholesterol fed rats for HDL-C in rats at the dose of 3 mg/kg by Chroinc screen test; format: functional
[23] = tested on: Rattus norvegicus; experiment: Effect on the plasma Cholesterol level in rats at the dose of 0.3 mg/kg by Acute screen test; format: functional, organism-based; set-up: dose 0.3 mg/kg
[24] = tested on: Rattus norvegicus; experiment: Effect on the plasma Cholesterol level in rats at the dose of 0.1 mg/kg by Acute screen test; format: functional, organism-based; set-up: dose 0.1 mg/kg
[25] = tested on: Rattus norvegicus; experiment: Effect on the Cholesterol fed rats for non-HDL-C in rats at the dose of 0.3 mg/kg by Chroinc screen test; format: functional; also: unit not given here
[26] = tested on: Rattus norvegicus; experiment: Evaluated for %change in cholesterol fed rats at the dose of 1 mg/kg determined by Acute screen test; format: functional
[27] = tested on: Rattus norvegicus; experiment: Evaluated for %change in Normal, Chow fed rats for total cholesterol plasma level in rats at the dose of 30 mg/kg; format: functional
[28] = tested on: Rattus norvegicus; experiment: Effect on the Cholesterol fed rats for total cholesterol level in rats at the dose of 3 mg/kg by Chroinc screen test; format: functional
[29] = tested on: Rattus norvegicus; experiment: Effect on the Cholesterol fed rats for HDL-C in rats at the dose of 0.03 mg/kg by Chroinc screen test; format: functional; also: unit not given here
[30] = tested on: Rattus norvegicus; experiment: Evaluated for %change in cholesterol fed rats at the dose of 10 mg/kg determined by Acute screen test; format: functional
[31] = tested on: Rattus norvegicus; experiment: Evaluated for %change in cholesterol fed rats for HDL-C at the dose of 0.03 mg/kg determined by Chronic screen test; format: functional
[32] = tested on: Rattus norvegicus; experiment: Evaluated for %change in cholesterol fed rats for non-HDL-C at the dose of 3 mg/kg determined by Chronic screen test; format: functional
[33] = tested on: Rattus norvegicus; experiment: Evaluated for %change in cholesterol fed rats for non-HDL-C at the dose of 0.1 mg/kg determined by Chronic screen test; format: functional
[34] = tested on: Rattus norvegicus; experiment: Evaluated for %change in Normal, Chow fed for rats Plasma total triglyceride plasma level in rats at the dose of 10 mg/kg; format: functional
[35] = tested on: Rattus norvegicus; experiment: Evaluated for %change in Normal, Chow fed rats for total cholesterol plasma level in rats at the dose of 3 mg/kg; format: functional
[36] = tested on: Rattus norvegicus; experiment: Evaluated for %change in cholesterol fed rats at the dose of 0.1 mg/kg determined by Acute screen test; format: functional
[37] = tested on: Rattus norvegicus; experiment: Evaluated for %change in cholesterol fed rats for HDL-C at the dose of 0.01 mg/kg determined by Chronic screen test; format: functional
[38] = tested on: Rattus norvegicus; experiment: Effect on the Cholesterol fed rats for HDL-C in rats at the dose of 0.3 mg/kg by Chroinc screen test; format: functional; also: unit not given here
[39] = tested on: Rattus norvegicus; experiment: Effect on the Normal, Chow fed rats for Plasma total triglyceride level in rats at the dose of 3 mg/kg; format: functional, organism-based; set-up: dose 3 mg/kg
[40] = tested on: Rattus norvegicus; experiment: Effect on the Cholesterol fed rats for non-HDL-C in rats at the dose of 1 mg/kg by Chroinc screen test; format: functional
[41] = tested on: Rattus norvegicus; experiment: Effect on the Cholesterol fed rats for non-HDL-C in rats at the dose of 0.03 mg/kg by Chroinc screen test; format: functional; also: unit not given here
[42] = tested on: Rattus norvegicus; experiment: Evaluated for %change in cholesterol fed rats for total cholesterol at the dose of 1 mg/kg determined by Chronic screen test; format: functional
[43] = tested on: Rattus norvegicus; experiment: Evaluated for %change in cholesterol fed rats for non-HDL-C at the dose of 0.01 mg/kg determined by Chronic screen test; format: functional
[44] = tested on: Rattus norvegicus; experiment: Effect on the Cholesterol fed rats for HDL-C in rats at the dose of 0.1 mg/kg by Chroinc screen test; format: functional
[45] = tested on: Rattus norvegicus; experiment: Effect on the Normal, Chow fed rats for total cholesterol plasma level in rats at the dose of 10 mg/kg; format: functional, organism-based; set-up: dose 10 mg/kg
[46] = tested on: Rattus norvegicus; experiment: Effect on the Cholesterol fed rats for HDL-C in rats at the dose of 0.01 mg/kg by Chroinc screen test; format: functional
[47] = tested on: Rattus norvegicus; experiment: Evaluated for %change in cholesterol fed rats for non-HDL-C at the dose of 1 mg/kg determined by Chronic screen test; format: functional
[48] = tested on: Oryctolagus cuniculus; experiment: Effect on Rabbits (Fed a Cholesterol-Free Casein Diet ) for plasma cholesterol at the dose of 10 mg/kg (pretreatment); format: functional, organism-based; set-up: dose 10 mg/kg
[49] = tested on: Rattus norvegicus; experiment: Evaluated for %change in Normal, Chow fed for rats Plasma total triglyceride plasma level in rats at the dose of 30 mg/kg; format: functional
[50] = tested on: Rattus norvegicus; experiment: Effect on the Cholesterol fed rats for total cholesterol level in rats at the dose of 10 mg/kg by Chroinc screen test; format: functional; also: unit not given here
[51] = tested on: Rattus norvegicus; experiment: Effect on the plasma cholesterol level in rats at the dose of 1 mg/kg by Acute screen test; format: functional, organism-based; set-up: dose 1 mg/kg

Question: With `CC(C)c1cc(C(C)C)c(CC(=O)NS(=O)(=O)Oc2c(C(C)C)cccc2C(C)C)c(C(C)C)c1` [AVASIMIBE] as the molecule, how does the Plasma cholesterol [1] read?
Answer: 171 mg/dL

Question: What about the Change [2] of the same molecule?
Answer: -84%

Question: And the Change [3]?
Answer: 155%

Question: What about the Plasma cholesterol [4] of the same molecule?
Answer: 215 mg/dL

Question: And the Non-HDL-C [5]?
Answer: 535

Question: What about the TC [6] of the same molecule?
Answer: 131 and 323

Question: And the TC [7]?
Answer: 90

Question: What about the Change [8] of the same molecule?
Answer: -25%

Question: And the Change [9]?
Answer: 140%

Question: What about the Change [10] of the same molecule?
Answer: 16%

Question: And the Plasma cholesterol [11]?
Answer: 51 mg/dL

Question: And the Change [12]?
Answer: -41% and -40%

Question: What about the Change [13] of the same molecule?
Answer: -59%

Question: And the Plasma cholesterol [14]?
Answer: 118 mg/dL

Question: What about the TC [15] of the same molecule?
Answer: 619

Question: And the Change [16]?
Answer: -38%

Question: And the Plasma TC [17]?
Answer: 49 mg/dL

Question: And the Change [18]?
Answer: -56%

Question: And the Change [19]?
Answer: -64%

Question: What about the Plasma cholesterol [20] of the same molecule?
Answer: 66 mg/dL

Question: And the Change [21]?
Answer: -38%

Question: What about the HDL-C [22] of the same molecule?
Answer: 33

Question: And the Plasma cholesterol [23]?
Answer: 81 mg/dL

Question: And the Plasma cholesterol [24]?
Answer: 124 mg/dL

Question: What about the Non-HDL-C [25] of the same molecule?
Answer: 70

Question: What about the Change [26] of the same molecule?
Answer: -60%

Question: What about the Change [27] of the same molecule?
Answer: -30%

Question: What about the TC [28] of the same molecule?
Answer: 92

Question: And the HDL-C [29]?
Answer: 15

Question: And the Change [30]?
Answer: -72%

Question: What about the Change [31] of the same molecule?
Answer: -12%

Question: What about the Change [32] of the same molecule?
Answer: -72%

Question: And the Change [33]?
Answer: -45% and -41%

Question: And the Change [34]?
Answer: -55%

Question: What about the Change [35] of the same molecule?
Answer: -16%

Question: And the Change [36]?
Answer: -32%

Question: What about the Change [37] of the same molecule?
Answer: -12%

Question: What about the HDL-C [38] of the same molecule?
Answer: 20

Question: What about the Plasma TG [39] of the same molecule?
Answer: 95 mg/dL

Question: What about the Non-HDL-C [40] of the same molecule?
Answer: 61

Question: And the Non-HDL-C [41]?
Answer: 320

Question: What about the Change [42] of the same molecule?
Answer: -61%

Question: And the Change [43]?
Answer: 17%

Question: What about the HDL-C [44] of the same molecule?
Answer: 16 and 18

Question: What about the Plasma TC [45] of the same molecule?
Answer: 44 mg/dL

Question: What about the HDL-C [46] of the same molecule?
Answer: 15

Question: And the Change [47]?
Answer: -70%

Question: And the Plasma cholesterol [48]?
Answer: 209 mg/dL

Question: What about the Change [49] of the same molecule?
Answer: -66%

Question: And the TC [50]?
Answer: 69

Question: What about the Plasma cholesterol [51] of the same molecule?
Answer: 72 mg/dL
